# Reference: ChEMBL document CHEMBL4138191, “Organic arsenicals target thioredoxin reductase followed by oxidative stress and mitochondrial dysfunction resulting in apoptosis” (Eur J Med Chem, 2018)
# How the values were obtained:
# HL-60 [1] = experiment: Induction of mitochondrial membrane potential loss in human HL60 cells after 24 hrs by JC-1 staining-based flow cytometry (reference value: 24.3%); assay type: functional
# HL-60 [2] = experiment: Induction of mitochondrial membrane potential loss in human HL60 cells after 24 hrs by JC-1 staining-based flow cytometry (reference value: 28.6%); assay type: functional
compound,measurement,setting,value
N#CC(C#N)=NNc1cccc(Cl)c1 [CARBONYL CYANIDE M-CHLOROPHENYLHYDRAZONE],Activity,HL-60 [1],85.8%
same,Activity,HL-60 [2],62.4%
